Source: patent publication US5013722A, “Cholecystokinin analogs for controlling appetite” (Hoffmann-LaRoche Inc., priority 1989, dated 1991)
“Also recorded” adds a separate entry of the source. Where a SMILES comes first, the peptide text is derived from it. [ ]: non-standard residue; d: D form. Thr(SO3H) = C[C@@H](OS(=O)(=O)O)[C@H](N)C(=O)O; sY = N[C@@H](Cc1ccc(OS(=O)(=O)O)cc1)C(=O)O; NMeF = CN[C@@H](Cc1ccccc1)C(=O)O

Legend:
Male rats, food intake = test: Two-meal feeding assay, intranasal administration; format: in vivo, rat; settings: for Food Intake 1st meal (%) / Food Intake 2nd meal (%): saline = 100
Procedure: (§1) Male Sprague-Dawley (CD) rats weighing 180-200 grams (Charles River Breeding Laboratories) were acclimated to a 12 h light/dark cycle (6 a.m. to 6 p.m.) in a room kept at 22° C. They were subsequently fasted for two days, weighed, placed in individual cages, and a four-day period of meal training was begun. During this time the rats were given ground laboratory chow (Purina Lab Chow) in jars for one hour from 9:00 a.m. until 10:00 a.m., the jars were removed from 10:00 a.m. to 12:00 p.m., and placed back in the cages from 12:00 until 1:00 p.m. Under this `1-2-1` meal feeding regime most rats learn to eat approximately as much Per day during the two hours they have access to food as rats which have food ad libitum over the entire 24-hour day. On the fourth day, the rats were weighed again, and any which lost more than five grams body weight were excluded from the test. The animals were then distributed into experimental (n=5 to 6) and control groups (n=6-12). but not matched for body weight.
Male rats were meal trained as described in Example 9. The peptide of Example 2 was dissolved in saline and was administered to the rats intranasally. CCK-8, dissolved in saline was used as a control.

[1] = molecular target: T1, receptors in rat pancreas (3H-CCK-8-(SO3 H) binding) (Rattus norvegicus, UniProt P30551); test: In vitro receptor binding assay, rat pancreas homogenate, 3H-CCK-8-(SO3H) radioligand; settings: 0.15 nM radioligand, 30 min, 25° C.; read-out: Rat Pancreas IC50 (inhibition of specific 3H-CCK-8-(SO3H) binding)
T1 construct: receptors in homogenized preparations of rat pancreatic cells and bovine striata; from tissue; host or cells: rat pancreas homogenate (48,000 x g pellet)
T1 sequence (P30551 1-444): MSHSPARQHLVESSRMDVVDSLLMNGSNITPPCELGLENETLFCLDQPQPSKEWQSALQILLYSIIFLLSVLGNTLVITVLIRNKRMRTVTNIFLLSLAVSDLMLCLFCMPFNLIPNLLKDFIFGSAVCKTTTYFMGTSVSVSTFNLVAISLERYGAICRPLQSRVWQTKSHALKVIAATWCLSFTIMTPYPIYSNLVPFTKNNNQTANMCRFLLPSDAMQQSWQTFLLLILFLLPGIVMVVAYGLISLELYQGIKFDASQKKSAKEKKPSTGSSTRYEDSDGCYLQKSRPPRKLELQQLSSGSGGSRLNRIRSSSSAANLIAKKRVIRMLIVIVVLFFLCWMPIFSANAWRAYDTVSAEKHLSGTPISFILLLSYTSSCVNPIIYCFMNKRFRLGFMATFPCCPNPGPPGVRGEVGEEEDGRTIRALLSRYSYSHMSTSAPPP
Procedure: This strategy was utilized to minimize central nervous system side effects by identifying peptides with peripheral receptor selectivity. […] The tissue was homogenized 2 x for approx. 15 sec. at 0° C. using a Polytron homogenizer at a setting of 6. The tissue was isolated by centrifugation at 48,000 x g for 10 min. at 0° C. […] Samples were incubated for 30 min. at 25° C. and the incubation terminated by pouring the mixture onto a pre-wet Whatman GF/B filter on a Sandbeck Vacuum Filtration Manifold. The incubation tubes were washed with 2×3 ml of ice-cold HEPES Buffer #2 and the wash filtered through the GF/B filter. The filter was air dried for 10 min. and then placed in a scintillation vial with 12 ml of Beckman HP/b Ready-Solv scintillation cocktail. The vials were shaken for 2 hours and then counted using a Beckman Model 7800 liquid scintillation spectrometer.

[2] = system: Male Sprague-Dawley (CD) rats, food intake; test: Two-meal feeding assay, intraperitoneal administration; format: in vivo, rat
Procedure: as §1
Peptides of the invention were suspended either in saline. if soluble, or in 1% gum arabic, if insoluble, at concentrations of 0 to 320 μg/ml/kg body weight and were administered intraperitonerally 15 min before the first meal on day 5 of meal feeding. The rats were then given their meals as they had been during the previous four days, and the food cups were weighed both before and after each meal to determine food consumption. Food intake was expressed as a mean and standard error of the mean in grams consumed or as a percent of control values for the various groups. The treated groups were compared to the control groups by t-test analysis. […]

SMILES: CSCC[C@H](NC(=O)[C@H](Cc1ccc(OS(=O)(=O)O)cc1)NC(C)=O)C(=O)NCC(=O)N[C@@H](Cc1c[nH]c2ccccc12)C(=O)N[C@@H](CCSC)C(=O)N[C@H](C(=O)N(C)[C@@H](Cc1ccccc1)C(N)=O)[C@@H](C)OS(=O)(=O)O [Example 2, Ac-Tyr(SO3 H)-Met-Gly-Trp-Met-Thr(SO3 H)-N-methyl-Phe-NH2] (Ac-[sY]MGWM[Thr(SO3H)][NMeF]-NH2)
- Food Intake 1st meal Grams consumed (Male rats, food intake; 3 μg/kg intranasal): 7.5 ± 0.8 Grams
- Food Intake 2nd meal Grams consumed (Male rats, food intake; 3 μg/kg intranasal): 6.1 ± 0.3 Grams
- Food Intake 1st meal (%) (Male rats, food intake; 3 μg/kg intranasal): 102%
- Food Intake 2nd meal (%) (Male rats, food intake; 3 μg/kg intranasal): 109%
- Food Intake 1st meal Grams consumed (Male rats, food intake; 10 μg/kg intranasal): 5.5 ± 0.6 Grams
- Food Intake 2nd meal Grams consumed (Male rats, food intake; 10 μg/kg intranasal): 6.3 ± 0.4 Grams
- Food Intake 1st meal (%) (Male rats, food intake; 10 μg/kg intranasal): 74%
- Food Intake 2nd meal (%) (Male rats, food intake; 10 μg/kg intranasal): 112%
- Food Intake 1st meal Grams consumed (Male rats, food intake; 30 μg/kg intranasal): 5.8 ± 0.7 Grams
- Food Intake 2nd meal Grams consumed (Male rats, food intake; 30 μg/kg intranasal): 4.3 ± 0.6 Grams
- Food Intake 1st meal (%) (Male rats, food intake; 30 μg/kg intranasal): 78%
- Food Intake 2nd meal (%) (Male rats, food intake; 30 μg/kg intranasal): 76%
- Food Intake 1st meal Grams consumed (Male rats, food intake; 100 μg/kg intranasal): 3.4 ± 0.4 Grams
- Food Intake 2nd meal Grams consumed (Male rats, food intake; 100 μg/kg intranasal): 4.6 ± 0.5 Grams
- Food Intake 1st meal (%) (Male rats, food intake; 100 μg/kg intranasal): 46%
- Food Intake 2nd meal (%) (Male rats, food intake; 100 μg/kg intranasal): 82%
- IC50 [1]: 2.2 nM
- Food Intake 1st Meal ([2]; 32 microgm/Kg i.p., 15 min before first meal, mean ± SEM): 8 ± 1 % of Control
- Food Intake 2nd Meal ([2]; 32 microgm/Kg i.p., mean ± SEM): 26 ± 4 % of Control
- Food intake suppression over dosage range compared with CCK-8 (FIG. 1) ([2]; first meal, i.p., dosage range of FIG. 1): effectively reduced food intake during the first meal at a much lower dosage range than did CCK-8; also recorded: effectively suppresses food intake in rats at a lower dosage than does CCK-8
